This is an account of results in ChEMBL document CHEMBL3217559, “Monocyte and macrophage selective anti-inflammatory kinase inhibitors” (Medchemcomm, 2012).

Each structure is given as a SMILES string.

In data set [1] the target is Mitogen-activated protein kinase 14 (Homo sapiens, UniProt Q16539). Nature of the data set: Inhibition of p38 MAP kinase alpha (unknown origin) after 1 hr by Z'-lyte assay.
In data set [2] the target is T1, MAP kinase p38 (Homo sapiens, UniProt O15264+Q15759+Q16539+P53778). Nature of the data set: Inhibition of p38 MAP kinase-mediated MAPKAPK2 phosphorylation in human Hut78 cells after 4 hrs by chemiluminescence assay. It is filed as cell-based.
The test system of a further data set is THP-1. In words: Inhibition of LPS-induced TNFalpha production in human THP1 cells. The class given is functional, cell-based.
In another data set the test system is Blood. Nature of the data set: Inhibition of LPS-induced TNFalpha production in human whole blood. The class given is functional, tissue-based.
Data set [3] concerns the target T1, MAP kinase p38. Nature of the data set: Inhibition of p38 MAP kinase-mediated MAPKAPK2 phosphorylation in human U937 cells after 4 hrs by chemiluminescence assay. The class given is cell-based. As to conditions: u-937.
Data set [4] concerns the target T2, Liver carboxylesterase 1 (Homo sapiens, UniProt P23141).
T2 sequence (P23141 whole entry): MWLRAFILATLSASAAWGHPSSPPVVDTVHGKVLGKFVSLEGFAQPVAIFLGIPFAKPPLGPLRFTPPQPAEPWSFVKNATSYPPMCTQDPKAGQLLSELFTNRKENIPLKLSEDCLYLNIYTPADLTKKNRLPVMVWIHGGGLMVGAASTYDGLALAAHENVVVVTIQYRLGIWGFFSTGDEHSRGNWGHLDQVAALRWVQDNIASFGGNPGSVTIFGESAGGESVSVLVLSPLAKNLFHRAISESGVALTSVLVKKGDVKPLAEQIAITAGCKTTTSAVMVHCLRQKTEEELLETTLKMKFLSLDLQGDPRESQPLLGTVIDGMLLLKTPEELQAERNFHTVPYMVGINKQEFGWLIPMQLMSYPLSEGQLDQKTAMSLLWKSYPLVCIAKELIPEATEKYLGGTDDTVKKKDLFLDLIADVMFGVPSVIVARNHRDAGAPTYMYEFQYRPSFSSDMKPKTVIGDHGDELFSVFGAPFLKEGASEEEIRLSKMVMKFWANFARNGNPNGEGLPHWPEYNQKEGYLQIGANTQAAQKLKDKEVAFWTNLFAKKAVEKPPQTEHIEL
In words: Drug metabolism in intact human U937 cells assessed as human CE1-mediated N-[2-(4-{6-Amino-5-[(2,4-difluorophenyl)carbonyl]-2-oxopyridin-1(2H)-yl}-3,5 difluorophenyl)ethyl]-L-leucine formation per million cells at 2.5 uM after 6 hrs by LC/MS/MS analysis. The class given is ADME, cell-based. The following applies: u-937, 6 h.

Data set [5] relates to HuT78. In words: Drug metabolism in intact human HUT78 cells assessed as N-[2-(4-{6-Amino-5-[(2,4-difluorophenyl)carbonyl]-2-oxopyridin-1(2H)-yl}-3,5 difluorophenyl)ethyl]-L-leucine formation per million cells at 2.5 uM after 6 hrs by LC/MS/MS analysis. It is filed as ADME, cell-based. The following applies: hut78, 6 h.
Data set [6] has as its system HuT78. In words: Drug metabolism in human HUT78 cell lysate assessed as N-[2-(4-{6-Amino-5-[(2,4-difluorophenyl)carbonyl]-2-oxopyridin-1(2H)-yl}-3,5 difluorophenyl)ethyl]-L-leucine formation at 2.5 uM after 10 to 80 mins by LC/MS/MS analysis. The class given is ADME, cell-based. The following applies: hut78, 2.5 µM.
In data set [7] the target is T2, Liver carboxylesterase 1. Nature of the data set: Drug metabolism in human U937 cell lysate assessed as human CE1-mediated N-[2-(4-{6-Amino-5-[(2,4-difluorophenyl)carbonyl]-2-oxopyridin-1(2H)-yl}-3,5 difluorophenyl)ethyl]-L-leucine formation at 2.5 uM after 10 to 80 mins by LC/MS/MS analysis. The class given is ADME, cell-based. The following applies: u-937, 2.5 µM.

Data set [8] deals with HuT78. Nature of the data set: Drug metabolism in human HUT78 cell lysate assessed as 5-(4-{6-Amino-5-[(2,4-difluorophenyl)carbonyl]-2-oxopyridiny1(2H)-yl}-3,5-difluorophenoxy)-L-norvaline formation at 2.5 uM after 10 to 80 mins by LC/MS/MS analysis. It is filed as ADME, cell-based. As to conditions: hut78, 2.5 µM.
The subject of data set [9] is HuT78. Nature of the data set: Drug metabolism in intact human HUT78 cells assessed as 5-(4-{6-Amino-5-[(2,4-difluorophenyl)carbonyl]-2-oxopyridiny1(2H)-yl}-3,5-difluorophenoxy)-L-norvaline formation per million cells at 2.5 uM after 6 hrs by LC/MS/MS analysis. It is filed as ADME, cell-based. The following applies: hut78, 6 h.
The target in data set [10] is T2, Liver carboxylesterase 1. In words: Drug metabolism in intact human U937 cells assessed as human CE1-mediated 5-(4-{6-Amino-5-[(2,4-difluorophenyl)carbonyl]-2-oxopyridiny1(2H)-yl}-3,5-difluorophenoxy)-L-norvaline formation per million cells at 2.5 uM after 6 hrs by LC/MS/MS analysis. The class given is ADME, cell-based. As to conditions: u-937, 6 h.
Data set [11] deals with T2, Liver carboxylesterase 1. In words: Drug metabolism in human U937 cell lysate assessed as human CE1-mediated 5-(4-{6-Amino-5-[(2,4-difluorophenyl)carbonyl]-2-oxopyridiny1(2H)-yl}-3,5-difluorophenoxy)-L-norvaline formation at 2.5 uM after 10 to 80 mins by LC/MS/MS analysis. It is filed as ADME, cell-based. The following applies: u-937, 2.5 µM.

Sequence of Mitogen-activated protein kinase 14 (Q16539 whole entry): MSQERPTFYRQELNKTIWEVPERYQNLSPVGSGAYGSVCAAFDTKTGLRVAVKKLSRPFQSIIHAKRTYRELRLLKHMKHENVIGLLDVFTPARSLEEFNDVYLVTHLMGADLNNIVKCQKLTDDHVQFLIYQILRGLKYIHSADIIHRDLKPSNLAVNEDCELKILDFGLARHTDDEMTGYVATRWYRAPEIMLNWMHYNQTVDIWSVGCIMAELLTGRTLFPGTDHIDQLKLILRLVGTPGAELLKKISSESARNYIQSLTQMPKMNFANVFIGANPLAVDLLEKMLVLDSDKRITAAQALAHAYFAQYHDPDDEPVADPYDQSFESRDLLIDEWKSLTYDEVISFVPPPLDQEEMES

Regarding `Nc1c(C(=O)c2ccc(F)cc2F)ccc(=O)n1-c1c(F)cccc1F`, the half-maximal inhibitory concentration (IC50) in data set [1] was 1.86 nM; against MAP kinase p38 [2] it was 10 nM; with THP-1, 1.5 nM; in the data set on Blood, 182 nM; against MAP kinase p38 [3] it was 10 nM.

On to `CC(C)C[C@H](NCCc1cc(F)c(-n2c(N)c(C(=O)c3ccc(F)cc3F)ccc2=O)c(F)c1)C(=O)OC1CCCC1`, for which the IC50 in data set [1] was found to be 273 nM; against MAP kinase p38 [2] it was 73 nM; with THP-1, 0.74 nM; with Blood, 57.5 nM; against MAP kinase p38 [3], 0.65 nM. In addition, the Drug metabolism was 606 ng on Liver carboxylesterase 1 [4], 0.5 ng in the data set with HuT78 [5], under 20 pg/mL/min in the data set with HuT78 [6] and 3036 pg/mL/min at Liver carboxylesterase 1 [7].

In the case of `Nc1c(C(=O)c2ccc(F)cc2F)ccc(=O)n1-c1c(F)cc(OCCC[C@H](N)C(=O)OC2CCCC2)cc1F`, the IC50 is 6.5 nM in data set [1]; 1 nM against MAP kinase p38 [2]; 1.4 nM with THP-1; 28.8 nM in the data set with Blood; 1 nM on MAP kinase p38 [3]. For the same compound, the Drug metabolism with HuT78 [8] was found to be 14326 pg/mL/min; in the data set on HuT78 [9], 727 ng; at Liver carboxylesterase 1 [10] it was 1407 ng; at Liver carboxylesterase 1 [11], 10613 pg/mL/min.

Compound `CC(C)C[C@H](NCCc1cc(F)c(-n2c(N)c(C(=O)c3ccc(F)cc3F)ccc2=O)c(F)c1)C(=O)O` showed an IC50 in [1] of 1.2 nM.

`Nc1c(C(=O)c2ccc(F)cc2F)ccc(=O)n1-c1c(F)cc(OCCC[C@H](N)C(=O)O)cc1F` gave an IC50 in [1] of 1 nM.

For orientation: IC50 means the concentration at which inhibition is half-maximal. A lower IC50 goes with greater potency.
